From patent US6914045B2, “Glycopeptide antibiotics” (Wyeth Holdings Corporation, priority 2001, dated 2005)
≈ marks a conversion by molar mass, not a printed value.

Key:
Assay in all cases: in vitro antibacterial evaluation, MIC by broth dilution
Type in all cases: cell-based
Escherichia coli = conditions: 18 hours at 35° C.
Staphylococcus sp. = conditions: broth dilution, 18 hours at 35° C.; for MIC Staphylococcus aureus (GC 1131): strain GC 1131; for MIC Staphylococcus aureus (ATCC 29213): strain ATCC 29213; for MIC Staphylococcus aureus (GC 3051): strain GC 3051; for MIC Staphylococcus aureus (GC 3053): strain GC 3053; for MIC Staphylococcus aureus (GC 4541): strain GC 4541; for MIC Staphylococcus aureus (GC 4542): strain GC 4542; for MIC Staphylococcus aureus-SMITH (GC 4543): strain GC 4543; for MIC Staphylococcus aureus (GC 4544): strain GC 4544; for MIC Staphylococcus aureus (GC 4545): strain GC 4545; for MIC Staphylococcus haemolyticus (GC 4546): strain GC 4546; for MIC Coagulase Negative Staphylococcus (GC 4547): strain GC 4547; for MIC Coagulase Negative Staphylococcus (GC 4548): strain GC 4548; for MIC Coagulase Negative Staphylococcus (GC 4549): strain GC 4549; for MIC Coagulase Negative Staphylococcus (GC 4551): strain GC 4551
Method in brief: (§1)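 Step 1: dilute antibiotic across 64-0.06 μg/mL in Muller-Hinton II […]. Step 2: inoculate at 5×10^5 CFU/mL.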

Enterococcus sp. = conditions: broth dilution, 18 hours at 35° C.
Method in brief: as §1

Streptococcus sp. = conditions: broth dilution, 18 hours at 35° C.
Method in brief: as §1

CC(c1ccccc1)C1NC(=O)CNC(=O)C(CO)NC(=O)C(CC2CNC(=N)N2C2OC(CO)C(O)C(O)C2O)NC(=O)C(CC2CNC(=N)N2)NC(=O)C(Cc2ccc(OC3OC(CO)C(OC4OC5COC(c6ccc(OCc7ccccc7)cc6)OC5C(O)C4O)C(O)C3O)cc2)NC1=O (stereo not drawn) [Example 191]
MIC Escherichia coli (ATCC 25922) (Escherichia coli): >64 µg/mL | MIC Escherichia coli (GC 4559) (Escherichia coli): 64 µg/mL (≈ 43.9 µM) | MIC Escherichia coli (GC 4560) (Escherichia coli): 8 µg/mL (≈ 5.49 µM) | MIC Staphylococcus aureus (GC 1131) (Staphylococcus sp.; inoculum 5×10^5 CFU/mL): 8 µg/mL (≈ 5.49 µM) | MIC Staphylococcus aureus (ATCC 29213) (Staphylococcus sp.): 4 µg/mL (≈ 2.74 µM) | MIC Staphylococcus aureus (GC 1131) (Staphylococcus sp.): 8 µg/mL (≈ 5.49 µM) | MIC Staphylococcus aureus (GC 3051) (Staphylococcus sp.): 8 µg/mL (≈ 5.49 µM) | MIC Staphylococcus aureus (GC 3053) (Staphylococcus sp.): 8 µg/mL (≈ 5.49 µM) | MIC Staphylococcus aureus (GC 4541) (Staphylococcus sp.): 4 µg/mL (≈ 2.74 µM) | MIC Staphylococcus aureus (GC 4542) (Staphylococcus sp.): 4 µg/mL (≈ 2.74 µM) | MIC Staphylococcus aureus-SMITH (GC 4543) (Staphylococcus sp.): 4 µg/mL (≈ 2.74 µM) | MIC Staphylococcus aureus (GC 4544) (Staphylococcus sp.): 8 µg/mL (≈ 5.49 µM) | MIC Staphylococcus aureus (GC 4545) (Staphylococcus sp.): 4 µg/mL (≈ 2.74 µM) | MIC Staphylococcus haemolyticus (GC 4546) (Staphylococcus sp.): 4 µg/mL (≈ 2.74 µM) | MIC Coagulase Negative Staphylococcus (GC 4547) (Staphylococcus sp.): 8 µg/mL (≈ 5.49 µM) | MIC Coagulase Negative Staphylococcus (GC 4548) (Staphylococcus sp.): 4 µg/mL (≈ 2.74 µM) | MIC Coagulase Negative Staphylococcus (GC 4549) (Staphylococcus sp.): 4 µg/mL (≈ 2.74 µM) | MIC Coagulase Negative Staphylococcus (GC 4551) (Staphylococcus sp.): 4 µg/mL (≈ 2.74 µM) | MIC Coagulase Negative Staphylococcus (GC 6257) (Staphylococcus sp.; strain GC 6257): 4 µg/mL (≈ 2.74 µM) | MIC Enterococcus avium (GC 4558) (Enterococcus sp.): 4 µg/mL (≈ 2.74 µM) | MIC Enterococcus faecalis (ATCC 29212) (Enterococcus sp.): 16 µg/mL (≈ 11 µM) | MIC Enterococcus faecalis (GC 2242) (Enterococcus sp.): 8 µg/mL (≈ 5.49 µM) | MIC Enterococcus faecalis (GC 2691) (Enterococcus sp.): 8 µg/mL (≈ 5.49 µM) | MIC Enterococcus faecalis (GC 3059) (Enterococcus sp.): 8 µg/mL (≈ 5.49 µM) | MIC Enterococcus faecalis (GC 4552) (Enterococcus sp.): 16 µg/mL (≈ 11 µM) | MIC Enterococcus faecalis (GC 4553) (Enterococcus sp.): 8 µg/mL (≈ 5.49 µM) | MIC Enterococcus faecalis (GC 4554) (Enterococcus sp.): 16 µg/mL (≈ 11 µM) | MIC Enterococcus faecalis (GC 6189) (Enterococcus sp.): 8 µg/mL (≈ 5.49 µM) | MIC Enterococcus faecium (GC 2243) (Enterococcus sp.): 8 µg/mL (≈ 5.49 µM) | MIC Enterococcus faecium (GC 4556) (Enterococcus sp.): 8 µg/mL (≈ 5.49 µM) | MIC Enterococcus faecium (GC 4557) (Enterococcus sp.): 4 µg/mL (≈ 2.74 µM) | MIC Enterococcus faecalis (ATCC 29212) (Enterococcus sp.; inoculum 5×10^5 CFU/mL, strain ATCC 29212): 16 µg/mL (≈ 11 µM) | MIC Enterococcus faecalis (GC 2242) (Enterococcus sp.; inoculum 5×10^5 CFU/mL, strain GC 2242): 8 µg/mL (≈ 5.49 µM) | MIC Enterococcus faecium (GC 2243) (Enterococcus sp.; inoculum 5×10^5 CFU/mL, strain GC 2243): 8 µg/mL (≈ 5.49 µM) | MIC Enterococcus faecalis (GC 2691) (Enterococcus sp.; inoculum 5×10^5 CFU/mL, strain GC 2691): 8 µg/mL (≈ 5.49 µM) | MIC Enterococcus faecalis (GC 3059) (Enterococcus sp.; inoculum 5×10^5 CFU/mL, strain GC 3059): 8 µg/mL (≈ 5.49 µM) | MIC Enterococcus faecalis (GC 4552) (Enterococcus sp.; inoculum 5×10^5 CFU/mL, strain GC 4552): 16 µg/mL (≈ 11 µM) | MIC Enterococcus faecalis (GC 4553) (Enterococcus sp.; inoculum 5×10^5 CFU/mL, strain GC 4553): 8 µg/mL (≈ 5.49 µM) | MIC Enterococcus faecalis (GC 4554) (Enterococcus sp.; inoculum 5×10^5 CFU/mL, strain GC 4554): 16 µg/mL (≈ 11 µM) | MIC Enterococcus faecium (GC 4556) (Enterococcus sp.; inoculum 5×10^5 CFU/mL, strain GC 4556): 8 µg/mL (≈ 5.49 µM) | MIC Enterococcus faecium (GC 4557) (Enterococcus sp.; inoculum 5×10^5 CFU/mL, strain GC 4557): 4 µg/mL (≈ 2.74 µM) | MIC Enterococcus avium (GC 4558) (Enterococcus sp.; inoculum 5×10^5 CFU/mL, strain GC 4558): 4 µg/mL (≈ 2.74 µM) | MIC Enterococcus faecalis (GC 6189) (Enterococcus sp.; inoculum 5×10^5 CFU/mL, strain GC 6189): 8 µg/mL (≈ 5.49 µM) | MIC Streptococcus agalactiae (GC 4564) (Streptococcus sp.): 2 µg/mL (≈ 1.37 µM) | MIC Streptococcus pneumoniae (ATCC 6301) (Streptococcus sp.): 1 µg/mL (≈ 0.686 µM) | MIC Streptococcus pneumoniae (GC 1894) (Streptococcus sp.): 0.25 µg/mL (≈ 0.172 µM) | MIC Streptococcus pneumoniae (GC 4565) (Streptococcus sp.): 2 µg/mL (≈ 1.37 µM) | MIC Streptococcus pyogenes (GC 4563) (Streptococcus sp.): 2 µg/mL (≈ 1.37 µM) | MIC Streptococcus pneumoniae (ATCC 6301) (Streptococcus sp.; inoculum 5×10^5 CFU/mL, strain ATCC 6301): 1 µg/mL (≈ 0.686 µM) | MIC Streptococcus pneumoniae (GC 1894) (Streptococcus sp.; inoculum 5×10^5 CFU/mL, strain GC 1894): 0.25 µg/mL (≈ 0.172 µM) | MIC Streptococcus pyogenes (GC 4563) (Streptococcus sp.; inoculum 5×10^5 CFU/mL, strain GC 4563): 2 µg/mL (≈ 1.37 µM) | MIC Streptococcus agalactiae (GC 4564) (Streptococcus sp.; inoculum 5×10^5 CFU/mL, strain GC 4564): 2 µg/mL (≈ 1.37 µM) | MIC Streptococcus pneumoniae (GC 4565) (Streptococcus sp.; inoculum 5×10^5 CFU/mL, strain GC 4565): 2 µg/mL (≈ 1.37 µM)

CC(C1CCCCC1)C1NC(=O)CNC(=O)C(CO)NC(=O)C(C(O)C2CNC(=N)N2C2OC(CO)C(O)C(O)C2O)NC(=O)C(C(O)C2CNC(=N)N2)NC(=O)C(CC2CCC(OC3OC(CO)C(OC4OC(CO)C(O)C(O)C4O)C(O)C3O)CC2)NC1=O (stereo not drawn) [Example 53a, Cyclo[3-[4-[(4-O-hexopyranosylhexopyranosyl)oxy]cyclohexyl]alanyl-3-(2-iminoimidazolidin-4-yl)seryl-3-(3-hexopyranosyl-2-iminoimidazolidin-4-yl)serylserylglycyl-3-cyclohexyl-2-aminobutanoyl]]
MIC Escherichia coli (ATCC 25922) (Escherichia coli; strain ATCC 25922, broth dilution): >128 µg/mL | MIC Escherichia coli (GC 4559) (Escherichia coli; strain GC 4559, broth dilution): >128 µg/mL | MIC Escherichia coli (GC 4560) (Escherichia coli; strain GC 4560, broth dilution): >128 µg/mL | MIC Staphylococcus aureus (ATCC 29213) (Staphylococcus sp.): >128 µg/mL | MIC Staphylococcus aureus (GC 1131) (Staphylococcus sp.): >128 µg/mL | MIC Staphylococcus aureus (GC 3051) (Staphylococcus sp.): >128 µg/mL | MIC Staphylococcus aureus (GC 3053) (Staphylococcus sp.): >128 µg/mL | MIC Staphylococcus aureus (GC 4541) (Staphylococcus sp.): >128 µg/mL | MIC Staphylococcus aureus (GC 4542) (Staphylococcus sp.): >128 µg/mL | MIC Staphylococcus aureus-SMITH (GC 4543) (Staphylococcus sp.): >128 µg/mL | MIC Staphylococcus aureus (GC 4544) (Staphylococcus sp.): >128 µg/mL | MIC Staphylococcus aureus (GC 4545) (Staphylococcus sp.): >128 µg/mL | MIC Staphylococcus haemolyticus (GC 4546) (Staphylococcus sp.): >128 µg/mL | MIC Coagulase Negative Staphylococcus (GC 4547) (Staphylococcus sp.): >128 µg/mL | MIC Coagulase Negative Staphylococcus (GC 4548) (Staphylococcus sp.): >128 µg/mL | MIC Coagulase Negative Staphylococcus (GC 4549) (Staphylococcus sp.): >128 µg/mL | MIC Coagulase Negative Staphylococcus (GC 4551) (Staphylococcus sp.): >128 µg/mL | MIC Enterococcus avium (GC 4558) (Enterococcus sp.; Enterococcus avium (GC 4558)): >128 µg/mL | MIC Enterococcus faecalis (ATCC 29212) (Enterococcus sp.; Enterococcus faecalis (ATCC 29212)): >128 µg/mL | MIC Enterococcus faecalis (GC 4552) (Enterococcus sp.; Enterococcus faecalis (GC 4552)): >128 µg/mL | MIC Enterococcus faecalis (GC 4553) (Enterococcus sp.; Enterococcus faecalis (GC 4553)): >128 µg/mL | MIC Enterococcus faecalis (GC 4554) (Enterococcus sp.; Enterococcus faecalis (GC 4554)): >128 µg/mL | MIC Enterococcus faecalis (GC 6189) (Enterococcus sp.; Enterococcus faecalis (GC 6189)): >128 µg/mL | MIC Enterococcus faecium (GC 2243) (Enterococcus sp.; Enterococcus faecium (GC 2243)): >128 µg/mL | MIC Enterococcus faecium (GC 4556) (Enterococcus sp.; Enterococcus faecium (GC 4556)): >128 µg/mL | MIC Enterococcus faecium (GC 4557) (Enterococcus sp.; Enterococcus faecium (GC 4557)): >128 µg/mL | MIC Enterococcus faecalis (ATCC 29212) (Enterococcus sp.; strain ATCC 29212): >128 µg/mL | MIC Enterococcus faecalis (GC 2242) (Enterococcus sp.; strain GC 2242): >128 µg/mL | MIC Enterococcus faecium (GC 2243) (Enterococcus sp.; strain GC 2243): >128 µg/mL | MIC Enterococcus faecalis (GC 2691) (Enterococcus sp.; strain GC 2691): >128 µg/mL | MIC Enterococcus faecalis (GC 3059) (Enterococcus sp.; strain GC 3059): >128 µg/mL | MIC Enterococcus faecalis (GC 4552) (Enterococcus sp.; strain GC 4552): >128 µg/mL | MIC Enterococcus faecalis (GC 4553) (Enterococcus sp.; strain GC 4553): >128 µg/mL | MIC Enterococcus faecalis (GC 4554) (Enterococcus sp.; strain GC 4554): >128 µg/mL | MIC Enterococcus faecium (GC 4556) (Enterococcus sp.; strain GC 4556): >128 µg/mL | MIC Enterococcus faecium (GC 4557) (Enterococcus sp.; strain GC 4557): >128 µg/mL | MIC Enterococcus avium (GC 4558) (Enterococcus sp.; strain GC 4558): >128 µg/mL | MIC Enterococcus faecalis (GC 6189) (Enterococcus sp.; strain GC 6189): >128 µg/mL | MIC Streptococcus pneumoniae (ATCC 6301) (Streptococcus sp.; strain ATCC 6301): 64 µg/mL (≈ 49 µM) | MIC Streptococcus pneumoniae (GC 1894) (Streptococcus sp.; strain GC 1894): 32 µg/mL (≈ 24.5 µM) | MIC Streptococcus pyogenes (GC 4563) (Streptococcus sp.; strain GC 4563): 64 µg/mL (≈ 49 µM) | MIC Streptococcus agalactiae (GC 4564) (Streptococcus sp.; strain GC 4564): 64 µg/mL (≈ 49 µM) | MIC Streptococcus pneumoniae (GC 4565) (Streptococcus sp.; strain GC 4565): 64 µg/mL (≈ 49 µM)
